Measured values from patent US10681909B2, “Herbicidal triazoles” (FMC Corporation, priority 2014, dated 2020).

Assays:
[1] = system: blackgrass; test: Test C postemergence; type: in vivo, Alopecurus myosuroides
Summary of the method: (§1)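 Pre: seeded into loam/sand, sprayed same time. Post: plants in peat moss–vermiculite mix with starter nutrients and dolomitic limestone, treated at 1- to 4-leaf stage (2 to 18 cm). Formulation: non-phytotoxic solvent blend plus surfactant.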

[2] = system: foxtail, giant; test: Test A preemergence; type: in vivo, Setaria faberii; conditions: 0 to 100 scale (0 no effect, 100 complete control)
Summary of the method: (§2)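 Plant seeds in loam soil blended with sand, then apply test chemical preemergence as a directed soil spray; in parallel, spray potted seedlings (one- to two-leaf, 2 to 10 cm) postemergence. Both treatments use a non-phytotoxic solvent mixture with surfactant.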

[3] = system: galium; test: Test C postemergence; type: in vivo, Galium aparine
Summary of the method: as §1

[4] = system: ryegrass, Ital.; test: Test D preemergence; type: in vivo, Lolium multiflorum; conditions: for Plant response rating (0 to 100), Ryegrass, Ital.: 16 g ai/ha, 0 is no effect, 100 is complete control; for Plant response rating: Ryegrass, Ital.: scale 0 to 100
Summary of the method: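 Test compounds are formulated in a non-phytotoxic solvent with surfactant. They are applied to the soil surface right after seeding in silt loam, or sprayed onto plants 2 to 18 cm tall in peat-based potting medium. Response is judged by eye against controls after 14 to 21 d.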

[5] = system: lambsquarters; test: Test C postemergence; type: in vivo, Chenopodium album
Summary of the method: as §1

[6] = system: soybean; test: Test C postemergence; type: in vivo, Glycine max
Summary of the method: as §1

[7] = system: chickweed; test: Test C postemergence; type: in vivo, Stellaria media
Summary of the method: as §1

[8] = system: pigweed; test: Test C postemergence; type: in vivo, Amaranthus retroflexus
Summary of the method: as §1

[9] = system: pigweed; test: Test A preemergence; type: in vivo, Amaranthus retroflexus; conditions: 0 to 100 scale (0 no effect, 100 complete control)
Summary of the method: as §2

[10] = system: rice; test: Test B flooded paddy test; type: in vivo, Oryza sativa; conditions: 250 g ai/ha, applied to paddy water at 2-leaf stage, visual rating after 13 to 15 d, scale 0 (no effect) to 100 (complete control)
Summary of the method: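 Pots were flooded to 3 cm above the soil at treatment, and compounds were applied directly into the paddy water. That depth was held throughout. After 13 to 15 d in a greenhouse, plants were rated visually against untreated controls.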

[11] = system: wheat (winter wheat); test: Test C postemergence; type: in vivo, Triticum aestivum
Summary of the method: as §1

[12] = system: johnsongrass; test: Test C postemergence; type: in vivo, Sorghum halepense
Summary of the method: as §1

[13] = system: oat, wild; test: Test C postemergence; type: in vivo, Avena fatua
Summary of the method: as §1

Structure (SMILES): COc1nc(-c2ccc(Cl)cc2)nn1Cc1ccnc(C(F)(F)F)c1 [Compound 28]
- Plant response rating (scale of 0 to 100 where 0 is no effect and 100 is complete control) ([1]; 31 g ai/ha): 10
- Plant response rating (scale of 0 to 100 where 0 is no effect and 100 is complete control) ([1]; 62 g ai/ha): 15
- Plant response rating (scale of 0 to 100 where 0 is no effect and 100 is complete control) ([1]; 125 g ai/ha): 15
- Plant response rating (scale of 0 to 100 where 0 is no effect and 100 is complete control) ([1]; 250 g ai/ha): 25
- Plant response rating, Foxtail, Giant ([2]; 125 g ai/ha): 100
- Plant response rating, Foxtail, Giant ([2]; 500 g ai/ha, approx. 10 d): 100
- Plant response rating (scale of 0 to 100 where 0 is no effect and 100 is complete control) ([3]; 31 g ai/ha): 85
- Plant response rating (scale of 0 to 100 where 0 is no effect and 100 is complete control) ([3]; 62 g ai/ha): 90
- Plant response rating (scale of 0 to 100 where 0 is no effect and 100 is complete control) ([3]; 125 g ai/ha): 90
- Plant response rating (scale of 0 to 100 where 0 is no effect and 100 is complete control) ([3]; 250 g ai/ha): 95
- Plant response rating (0 to 100), Ryegrass, Ital. [4]: 25
- Plant response rating: Ryegrass, Ital. ([4]; 62 g ai/ha): 25
- Plant response rating: Ryegrass, Ital. ([4]; 125 g ai/ha): 55
- Plant response rating (scale of 0 to 100 where 0 is no effect and 100 is complete control) ([5]; 31 g ai/ha): 100
- Plant response rating (scale of 0 to 100 where 0 is no effect and 100 is complete control) ([5]; 62 g ai/ha): 80
- Plant response rating (scale of 0 to 100 where 0 is no effect and 100 is complete control) ([5]; 125 g ai/ha): 98
- Plant response rating (scale of 0 to 100 where 0 is no effect and 100 is complete control) ([5]; 250 g ai/ha): 98
- Plant response rating (scale of 0 to 100 where 0 is no effect and 100 is complete control) ([6]; 31 g ai/ha): 45
- Plant response rating (scale of 0 to 100 where 0 is no effect and 100 is complete control) ([6]; 62 g ai/ha): 70
- Plant response rating (scale of 0 to 100 where 0 is no effect and 100 is complete control) ([6]; 125 g ai/ha): 55
- Plant response rating (scale of 0 to 100 where 0 is no effect and 100 is complete control) ([6]; 250 g ai/ha): 60
- Plant response rating (scale of 0 to 100 where 0 is no effect and 100 is complete control) ([7]; 31 g ai/ha): 80
- Plant response rating (scale of 0 to 100 where 0 is no effect and 100 is complete control) ([7]; 62 g ai/ha): 95
- Plant response rating (scale of 0 to 100 where 0 is no effect and 100 is complete control) ([7]; 125 g ai/ha): 90
- Plant response rating (scale of 0 to 100 where 0 is no effect and 100 is complete control) ([7]; 250 g ai/ha): 90
- Plant response rating (scale of 0 to 100 where 0 is no effect and 100 is complete control) ([8]; 31 g ai/ha): 95
- Plant response rating (scale of 0 to 100 where 0 is no effect and 100 is complete control) ([8]; 62 g ai/ha): 95
- Plant response rating (scale of 0 to 100 where 0 is no effect and 100 is complete control) ([8]; 125 g ai/ha): 98
- Plant response rating (scale of 0 to 100 where 0 is no effect and 100 is complete control) ([8]; 250 g ai/ha): 100
- Plant response rating, Pigweed ([9]; 125 g ai/ha): 100
- Plant response rating, Pigweed ([9]; 500 g ai/ha, approx. 10 d): 100
- Plant response rating, Rice, Flood [10]: 30
- Plant response rating (scale of 0 to 100 where 0 is no effect and 100 is complete control) ([11]; 31 g ai/ha): 0
- Plant response rating (scale of 0 to 100 where 0 is no effect and 100 is complete control) ([11]; 62 g ai/ha): 5
- Plant response rating (scale of 0 to 100 where 0 is no effect and 100 is complete control) ([11]; 125 g ai/ha): 5
- Plant response rating (scale of 0 to 100 where 0 is no effect and 100 is complete control) ([11]; 250 g ai/ha): 10
- Plant response rating (scale of 0 to 100 where 0 is no effect and 100 is complete control) ([12]; 62 g ai/ha): 5
- Plant response rating (scale of 0 to 100 where 0 is no effect and 100 is complete control) ([12]; 125 g ai/ha): 10
- Plant response rating (scale of 0 to 100 where 0 is no effect and 100 is complete control) ([12]; 250 g ai/ha): 85
- Plant response rating (scale of 0 to 100 where 0 is no effect and 100 is complete control) ([13]; 31 g ai/ha): 5
- Plant response rating (scale of 0 to 100 where 0 is no effect and 100 is complete control) ([13]; 62 g ai/ha): 5
- Plant response rating (scale of 0 to 100 where 0 is no effect and 100 is complete control) ([13]; 125 g ai/ha): 10
- Plant response rating (scale of 0 to 100 where 0 is no effect and 100 is complete control) ([13]; 250 g ai/ha): 15

Structure (SMILES): Fc1ccc(-c2nc(OCC(F)(F)F)n(Cc3ccnc(C(F)(F)F)c3)n2)cc1 [Compound 30]
- Plant response rating (scale of 0 to 100 where 0 is no effect and 100 is complete control) ([1]; 31 g ai/ha): 25
- Plant response rating (scale of 0 to 100 where 0 is no effect and 100 is complete control) ([1]; 62 g ai/ha): 30
- Plant response rating (scale of 0 to 100 where 0 is no effect and 100 is complete control) ([1]; 125 g ai/ha): 40
- Plant response rating (scale of 0 to 100 where 0 is no effect and 100 is complete control) ([1]; 250 g ai/ha): 60
- Plant response rating, Foxtail, Giant ([2]; 125 g ai/ha): 100
- Plant response rating, Foxtail, Giant ([2]; 500 g ai/ha, approx. 10 d): 100
- Plant response rating (scale of 0 to 100 where 0 is no effect and 100 is complete control) ([3]; 31 g ai/ha): 80
- Plant response rating (scale of 0 to 100 where 0 is no effect and 100 is complete control) ([3]; 62 g ai/ha): 80
- Plant response rating (scale of 0 to 100 where 0 is no effect and 100 is complete control) ([3]; 125 g ai/ha): 90
- Plant response rating (scale of 0 to 100 where 0 is no effect and 100 is complete control) ([3]; 250 g ai/ha): 90
- Plant response rating (0 to 100), Ryegrass, Ital. [4]: 40
- Plant response rating: Ryegrass, Ital. ([4]; 62 g ai/ha): 55
- Plant response rating: Ryegrass, Ital. ([4]; 125 g ai/ha): 70
- Plant response rating (scale of 0 to 100 where 0 is no effect and 100 is complete control) ([5]; 31 g ai/ha): 70
- Plant response rating (scale of 0 to 100 where 0 is no effect and 100 is complete control) ([5]; 62 g ai/ha): 85
- Plant response rating (scale of 0 to 100 where 0 is no effect and 100 is complete control) ([5]; 125 g ai/ha): 95
- Plant response rating (scale of 0 to 100 where 0 is no effect and 100 is complete control) ([5]; 250 g ai/ha): 95
- Plant response rating (scale of 0 to 100 where 0 is no effect and 100 is complete control) ([6]; 31 g ai/ha): 25
- Plant response rating (scale of 0 to 100 where 0 is no effect and 100 is complete control) ([6]; 62 g ai/ha): 45
- Plant response rating (scale of 0 to 100 where 0 is no effect and 100 is complete control) ([6]; 125 g ai/ha): 60
- Plant response rating (scale of 0 to 100 where 0 is no effect and 100 is complete control) ([6]; 250 g ai/ha): 75
- Plant response rating (scale of 0 to 100 where 0 is no effect and 100 is complete control) ([7]; 31 g ai/ha): 95
- Plant response rating (scale of 0 to 100 where 0 is no effect and 100 is complete control) ([7]; 62 g ai/ha): 95
- Plant response rating (scale of 0 to 100 where 0 is no effect and 100 is complete control) ([7]; 125 g ai/ha): 100
- Plant response rating (scale of 0 to 100 where 0 is no effect and 100 is complete control) ([7]; 250 g ai/ha): 100
- Plant response rating (scale of 0 to 100 where 0 is no effect and 100 is complete control) ([8]; 31 g ai/ha): 95
- Plant response rating (scale of 0 to 100 where 0 is no effect and 100 is complete control) ([8]; 62 g ai/ha): 95
- Plant response rating (scale of 0 to 100 where 0 is no effect and 100 is complete control) ([8]; 125 g ai/ha): 98
- Plant response rating (scale of 0 to 100 where 0 is no effect and 100 is complete control) ([8]; 250 g ai/ha): 98
- Plant response rating, Pigweed ([9]; 125 g ai/ha): 100
- Plant response rating, Pigweed ([9]; 500 g ai/ha, approx. 10 d): 100
- Plant response rating, Rice, Flood [10]: 30
- Plant response rating (scale of 0 to 100 where 0 is no effect and 100 is complete control) ([11]; 31 g ai/ha): 5
- Plant response rating (scale of 0 to 100 where 0 is no effect and 100 is complete control) ([11]; 62 g ai/ha): 5
- Plant response rating (scale of 0 to 100 where 0 is no effect and 100 is complete control) ([11]; 125 g ai/ha): 15
- Plant response rating (scale of 0 to 100 where 0 is no effect and 100 is complete control) ([11]; 250 g ai/ha): 20
- Plant response rating (scale of 0 to 100 where 0 is no effect and 100 is complete control) ([12]; 31 g ai/ha): 30
- Plant response rating (scale of 0 to 100 where 0 is no effect and 100 is complete control) ([12]; 62 g ai/ha): 100
- Plant response rating (scale of 0 to 100 where 0 is no effect and 100 is complete control) ([12]; 125 g ai/ha): 35
- Plant response rating (scale of 0 to 100 where 0 is no effect and 100 is complete control) ([12]; 250 g ai/ha): 30
- Plant response rating (scale of 0 to 100 where 0 is no effect and 100 is complete control) ([13]; 31 g ai/ha): 25
- Plant response rating (scale of 0 to 100 where 0 is no effect and 100 is complete control) ([13]; 62 g ai/ha): 15
- Plant response rating (scale of 0 to 100 where 0 is no effect and 100 is complete control) ([13]; 125 g ai/ha): 30
- Plant response rating (scale of 0 to 100 where 0 is no effect and 100 is complete control) ([13]; 250 g ai/ha): 45
